Biological target: E. coli gyrase A2B2 (Escherichia coli, UniProt P0AES6)
Assay: E. coli gyrase A2B2 ATPase assay
Format: biochemical
Details: 40 nM Gyr A2B2 from E coli, 0.9 mM ATP, 30° C., read-out: Activity against E. coli gyrase (Ki)
Procedure: The ATP hydrolysis activity of DNA gyrase was measured by coupling the production of ADP through pyruvate kinase/lactate dehydrogenase to the oxidation of NADH. This method has been described previously. (Tamura and Gellert, 1990, J. Biol. Chem. 265, 21342-21349).
ATPase assays were carried out at 30° C. in buffered solutions containing 100 mM TRIS pH 7.6, 1.5 mM MgCl2, and 150 mM KCl. The coupling system contained (final concentrations) 2.5 mM phosphoenol pyruvate, 200 μM nicotinamide adenine dinucleotide (NADH), 1 mM DTT, 30 ug/ml pyruvate kinase, and 10 ug/ml lactate dehydrogenase. 40 nM enzyme (374 kDa Gyr A2B2 from E coli) and a DMSO solution of the inhibitor to a final concentration of 4% were added and the reaction mixture allowed to incubate for 10 minutes at 30° C. The reaction was then started by the addition of ATP to a final concentration of 0.9 mM and the rate of NADH disappearance at 340 nm, measured over the course of 10 minutes. Ki values were determined from rate versus. inhibitor concentration profiles.

With `CCOC(=O)c1cc(-c2sc(-c3cccnc3)nc2CN2CCNCC2)n[nH]1` [IA-67] as the compound, how does the Ki read?
The Ki was 500 to 1500 nM.

— patent US20030170858A1, “Gyrase inhibitors and uses thereof” (priority 2001, published 2003)
